ChEMBL document CHEMBL3813628, “Molecular similarity guided optimization of novel Nrf2 activators with 1,2,4-oxadiazole core” (Bioorg Med Chem, 2016)

Experiments:
Format in all cases: cell-based
[1] = target: T1, Nuclear factor erythroid 2-related factor 2 (Homo sapiens) (UniProt Q16236); experiment: Activation of Nrf2 in human HepG2 cells at 5 uM incubated for 12 hrs by ARE-driven luciferase reporter gene assay relative to control
T1 sequence (whole entry): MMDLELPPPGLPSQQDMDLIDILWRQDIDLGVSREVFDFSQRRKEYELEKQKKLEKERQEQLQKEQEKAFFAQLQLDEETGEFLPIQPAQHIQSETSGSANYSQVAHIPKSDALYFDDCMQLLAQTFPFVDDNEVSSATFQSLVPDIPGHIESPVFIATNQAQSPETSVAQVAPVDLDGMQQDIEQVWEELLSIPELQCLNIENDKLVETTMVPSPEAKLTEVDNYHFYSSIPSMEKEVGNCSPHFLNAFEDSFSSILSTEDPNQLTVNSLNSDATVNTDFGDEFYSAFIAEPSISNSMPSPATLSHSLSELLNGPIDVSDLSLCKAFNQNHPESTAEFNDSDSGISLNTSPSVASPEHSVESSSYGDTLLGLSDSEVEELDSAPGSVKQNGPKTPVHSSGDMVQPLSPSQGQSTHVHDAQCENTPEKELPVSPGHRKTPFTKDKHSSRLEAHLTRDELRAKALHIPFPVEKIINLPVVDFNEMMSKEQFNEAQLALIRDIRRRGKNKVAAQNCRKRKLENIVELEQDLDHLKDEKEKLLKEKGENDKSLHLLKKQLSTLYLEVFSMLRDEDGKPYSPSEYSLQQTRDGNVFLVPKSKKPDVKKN

[2] = target: T1, Nuclear factor erythroid 2-related factor 2 (Homo sapiens); experiment: Activation of Nrf2 in human HepG2 cells at 20 uM incubated for 12 hrs by ARE-driven luciferase reporter gene assay relative to control
[3] = target: T1, Nuclear factor erythroid 2-related factor 2 (Homo sapiens); experiment: Activation of Nrf2 in human HepG2 cells at 40 uM incubated for 12 hrs by ARE-driven luciferase reporter gene assay relative to control
[4] = target: T1, Nuclear factor erythroid 2-related factor 2 (Homo sapiens); experiment: Activation of Nrf2 in human HepG2 cells at 0.2 uM incubated for 12 hrs by ARE-driven luciferase reporter gene assay relative to control
[5] = target: T1, Nuclear factor erythroid 2-related factor 2 (Homo sapiens); experiment: Activation of Nrf2 in human HepG2 cells at 160 uM incubated for 12 hrs by ARE-driven luciferase reporter gene assay relative to control
[6] = target: T1, Nuclear factor erythroid 2-related factor 2 (Homo sapiens); experiment: Activation of Nrf2 in human HepG2 cells at 0.02 uM incubated for 12 hrs by ARE-driven luciferase reporter gene assay relative to control
[7] = target: T1, Nuclear factor erythroid 2-related factor 2 (Homo sapiens); experiment: Activation of Nrf2 in human HepG2 cells at 80 uM incubated for 12 hrs by ARE-driven luciferase reporter gene assay relative to control
[8] = target: T1, Nuclear factor erythroid 2-related factor 2 (Homo sapiens); experiment: Activation of Nrf2 in human HepG2 cells at 2 uM incubated for 12 hrs by ARE-driven luciferase reporter gene assay relative to control

## COc1ccc(Cl)cc1-c1nc(-c2ccc3oc(C)nc3c2)no1
[1]
  fold change (FC): 3.62
[2]
  fold change (FC): 3.72

## Cc1nc2cc(-c3noc(-c4cccnc4)n3)ccc2o1
[1]
  fold change (FC): 3.29
[2]
  fold change (FC): 7.08

## Cn1cnc2ccc(-c3noc(-c4ccc5cc[nH]c5c4)n3)cc21
[3]
  fold change (FC): 12.4
[4]
  fold change (FC): 1.5
[1]
  fold change (FC): 4.1
[5]
  fold change (FC): 8.73
[2]
  fold change (FC): 5.47
[6]
  fold change (FC): 1.09
[7]
  fold change (FC): 12.1
[8]
  fold change (FC): 3.35

## Cc1nc2cc(-c3noc(/C=C/c4ccccc4)n3)ccc2o1
[3]
  fold change (FC): 6.78
[4]
  fold change (FC): 3.14
[1]
  fold change (FC): 4.64
[5]
  fold change (FC): 7.64
[2]
  fold change (FC): 5.46
[6]
  fold change (FC): 2.26
[7]
  fold change (FC): 7.31
[8]
  fold change (FC): 4.11

## CCc1ccc(-c2nc(-c3ccc4oc(C)nc4c3)no2)cc1
[1]
  fold change (FC): 2.36
[2]
  fold change (FC): 4.52

## CCOc1ccc(-c2nc(-c3ccc(-c4csc(C)n4)cc3)no2)c(CC)c1
[1]
  fold change (FC): 1.09
[2]
  fold change (FC): 3.08

## Cc1nc2cc(-c3noc(Cc4ccc(F)cc4)n3)ccc2o1
[1]
  fold change (FC): 1.73
[2]
  fold change (FC): 3.2

## c1ccc(-c2nc3cc(-c4noc(-c5ccc6[nH]cnc6c5)n4)ccc3o2)cc1
[3]
  fold change (FC): 5.43
[4]
  fold change (FC): 4.42
[1]
  fold change (FC): 4.55
[5]
  fold change (FC): 17.7
[2]
  fold change (FC): 6.96
[6]
  fold change (FC): 1.81
[7]
  fold change (FC): 8.23
[8]
  fold change (FC): 3.21

## Cc1nc2cc(-c3noc(-c4cccc(C#N)c4)n3)ccc2o1
[1]
  fold change (FC): 4.76
[2]
  fold change (FC): 2.6

## CCCn1c(=O)[nH]c2cc(-c3noc(C4CCCC4)n3)ccc21
[3]
  fold change (FC): 7.03
[4]
  fold change (FC): 4.19
[1]
  fold change (FC): 3.2
[5]
  fold change (FC): 8.4
[2]
  fold change (FC): 7.27
[6]
  fold change (FC): 3.71
[7]
  fold change (FC): 6.01
[8]
  fold change (FC): 4.86
